Measured values from ChEMBL document CHEMBL1201862, “PubChem BioAssay data set” (2004).
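Step 1: Grow cells in 96-well plates. Step 2: Expose to compound for 48 hours at 5 concentrations. Step 3: Interpolate endpoints linearly; if unreached, use highest concentration. GI50 marks 50% less growth.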 Activity calls are given as the source filed them. Rule as the data show it: active = GI50 up to about 1.1 µM and inactive = higher.

Columns and labels:
Assay in all cases: inhibition of tumour cell growth, NCI panel, 48 h
OVCAR-4 = system: OVCAR-4
SF-295 = system: SF-295
NCI-H226 = system: NCI-H226
OVCAR-3 = system: OVCAR-3
Hs-578T = system: Hs-578T
T47D = system: T47D
COLO 205 = system: COLO 205
SN12C = system: SN12C
Malme-3M = system: Malme-3M
SK-MEL-5 = system: SK-MEL-5
SNB-19 = system: SNB-19
SF-268 = system: SF-268
HCT-15 = system: HCT-15
SK-MEL-28 = system: SK-MEL-28
MOLT-4 = system: MOLT-4
DU-145 = system: DU-145
HOP-92 = system: HOP-92
RXF 393 = system: RXF 393
UO-31 = system: UO-31

Row | Compound | GI50 (OVCAR-4) | GI50 (SF-295) | GI50 (NCI-H226) | GI50 (OVCAR-3) | GI50 (Hs-578T) | GI50 (T47D) | GI50 (COLO 205) | GI50 (SN12C) | GI50 (Malme-3M) | GI50 (SK-MEL-5) | GI50 (SNB-19) | GI50 (SF-268) | GI50 (HCT-15) | GI50 (SK-MEL-28) | GI50 (MOLT-4) | GI50 (DU-145) | GI50 (HOP-92) | GI50 (RXF 393) | GI50 (UO-31)
1 | CN(C)c1ccc(/C=N/n2c(-c3ccccc3)nc3ccccc3c2=O)cc1 | 47.9 µM (inactive) | > 100 µM (inactive) | 71.6 µM (inactive) | > 100 µM (inactive) | 20 µM (inactive) | 15 µM (inactive) | 48.5 µM (inactive) | 80.9 µM (inactive) | > 100 µM (inactive) | 33.3 µM (inactive) | 40.8 µM (inactive) | 44 µM (inactive) | 27.5 µM | > 100 µM (inactive) | 34.4 µM (inactive) | > 100 µM (inactive) | 90.8 µM (inactive) | – | –
2 | CC1=C(C(=O)N[C@@H](Cc2ccccc2)C(=O)O)N2C(=O)[C@@H](NC(=O)[C@@H](N)CC(C)C)[C@H]2SC1 | > 100 µM (inactive) | > 100 µM (inactive) | > 100 µM (inactive) | > 100 µM (inactive) | > 100 µM (inactive) | > 100 µM (inactive) | > 100 µM (inactive) | > 100 µM (inactive) | > 100 µM (inactive) | > 100 µM (inactive) | > 100 µM (inactive) | > 100 µM (inactive) | > 100 µM | > 100 µM (inactive) | > 100 µM (inactive) | > 100 µM (inactive) | > 100 µM (inactive) | > 100 µM (inactive) | –
3 | N=C(N)N/N=C(\c1ccc(Cl)cc1)C1CC1 | 33 µM (inactive) | 21.3 µM (inactive) | 16.3 µM (inactive) | 19.4 µM (inactive) | 25 µM (inactive) | 19.5 µM (inactive) | 17.2 µM (inactive) | 19.1 µM (inactive) | 14.9 µM (inactive) | 15.6 µM (inactive) | 29 µM (inactive) | 28.9 µM (inactive) | 19 µM | 19.3 µM (inactive) | – | 22.6 µM (inactive) | 22.3 µM (inactive) | 33.9 µM (inactive) | 24.6 µM (inactive)
4 | O=C1CSC2(CC(/C=C/c3ccccc3Br)=NN2c2cccc(S(=O)(=O)O)c2)N1c1nc2ccccc2s1 (configuration not stated) | 75.9 µM (inactive) | – | 53.2 µM (inactive) | – | > 100 µM (inactive) | 27.6 µM (inactive) | > 100 µM (inactive) | > 100 µM (inactive) | > 100 µM (inactive) | 76 µM (inactive) | > 100 µM (inactive) | > 100 µM (inactive) | > 100 µM | > 100 µM (inactive) | 52 µM (inactive) | > 100 µM (inactive) | 87.9 µM (inactive) | > 100 µM (inactive) | 93.5 µM (inactive)
5 | CCOC(=O)CC1CCN(C(=O)c2ccccc2)C2Cc3c([nH]c4ccccc34)C12C[N+](=O)[O-] (configuration not stated) | > 100 µM (inactive) | 40.5 µM (inactive) | > 100 µM (inactive) | – | > 100 µM (inactive) | 54.3 µM (inactive) | 61 µM (inactive) | > 100 µM (inactive) | > 100 µM (inactive) | 57.8 µM (inactive) | – | > 100 µM (inactive) | 95.7 µM | > 100 µM (inactive) | 35 µM (inactive) | > 100 µM (inactive) | 40.6 µM (inactive) | 77.1 µM (inactive) | 48.3 µM (inactive)
6 | O=C(N/C=C1\C(=O)Oc2ccccc2C1=O)Oc1ccccc1 | 22.5 µM (inactive) | 30.5 µM (inactive) | 14.4 µM (inactive) | 17 µM (inactive) | 9.64 µM (inactive) | 22.4 µM (inactive) | 41.4 µM (inactive) | 18.6 µM (inactive) | 19.1 µM (inactive) | 32.7 µM (inactive) | 30.6 µM (inactive) | – | 23.7 µM | – | 24.9 µM (inactive) | 20 µM (inactive) | 22.1 µM (inactive) | 8.59 µM (inactive) | 16.4 µM (inactive)
7 | CC(=O)OC1COC(Nc2nc(N)n(C)c(=O)c2N=O)C(OC(C)=O)C1OC(C)=O (configuration not stated) | > 10 µM (inactive) | > 10 µM (inactive) | > 10 µM (inactive) | > 10 µM (inactive) | > 10 µM (inactive) | > 10 µM (inactive) | > 10 µM (inactive) | > 10 µM (inactive) | > 10 µM (inactive) | > 10 µM (inactive) | > 10 µM (inactive) | > 10 µM (inactive) | – | > 10 µM (inactive) | > 10 µM (inactive) | > 10 µM (inactive) | > 10 µM (inactive) | > 10 µM (inactive) | –
8 | Cc1ccc(C2=Nc3c(N)nc(N)nc3NC(c3ccccc3)C2)cc1 (configuration not stated) | 14.2 µM (inactive) | – | 14.4 µM (inactive) | 11.5 µM (inactive) | 14 µM (inactive) | 13.1 µM (inactive) | – | 12.2 µM (inactive) | 9.66 µM (inactive) | – | 14.2 µM (inactive) | 14.3 µM (inactive) | 3.1 µM | 14.4 µM (inactive) | 7.43 µM (inactive) | 14.7 µM (inactive) | 11.7 µM (inactive) | 7.36 µM (inactive) | 11.5 µM (inactive)
9 | OCCCCCNc1c2ccccc2nc2ccccc12 | 2.31 µM (inactive) | 2.75 µM (inactive) | – | 3.86 µM (inactive) | 3.18 µM (inactive) | 2.82 µM (inactive) | 1.53 µM (inactive) | 2.54 µM (inactive) | 1.9 µM (inactive) | 1.71 µM (inactive) | 3.03 µM (inactive) | 2.75 µM (inactive) | 3.57 µM | 3.85 µM (inactive) | 2.4 µM (inactive) | 3.02 µM (inactive) | – | 2.86 µM (inactive) | 2.38 µM (inactive)
10 | CCOC(=O)C1(C(=O)OCC)COS(=O)OC1 | 20.7 µM (inactive) | > 100 µM (inactive) | 20.8 µM (inactive) | 19.9 µM (inactive) | 83.6 µM (inactive) | 19.9 µM (inactive) | 23.8 µM (inactive) | > 100 µM (inactive) | – | 35.6 µM (inactive) | > 100 µM (inactive) | > 10 µM (inactive) | 19.2 µM | 35.1 µM (inactive) | 16.4 µM (inactive) | > 100 µM (inactive) | 12.6 µM (inactive) | 18.3 µM (inactive) | 70.3 µM (inactive)
11 | CN(C)CCNC(=O)c1cc([N+](=O)[O-])cc2c1Oc1ccccc1O2 | 40.6 µM (inactive) | 22 µM (inactive) | 12.6 µM (inactive) | 41.8 µM (inactive) | 28.6 µM (inactive) | 18.5 µM (inactive) | 13.7 µM (inactive) | 25.7 µM (inactive) | 21.7 µM (inactive) | 23 µM (inactive) | – | 21.6 µM (inactive) | > 10 µM | 35.2 µM (inactive) | 3.94 µM (inactive) | 37.8 µM (inactive) | – | 18.2 µM (inactive) | 11.4 µM (inactive)
12 | CC(C)c1cc2c(c(O)c1O)[C@@]1(C(=O)O)CCCC(C)(C)[C@@H]1CC2 [CARNOSIC ACID] | 39.5 µM (inactive) | 22.4 µM (inactive) | 10.4 µM (inactive) | 22.7 µM (inactive) | 24.1 µM (inactive) | 18.4 µM (inactive) | 24.2 µM (inactive) | 24 µM (inactive) | – | 16.2 µM (inactive) | > 10 µM (inactive) | 18.8 µM (inactive) | 27.3 µM | 13.2 µM (inactive) | 11.8 µM (inactive) | 25.1 µM (inactive) | 6.22 µM (inactive) | 19.6 µM (inactive) | 14.4 µM (inactive)
